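Where inhibition never reached the appropriate level, the endpoint shown equals the highest concentration tested. Otherwise, values were interpolated linearly from a five-concentration, 48-hour dose response in 96-well plates. GI50: concentration for 50% inhibition of growth.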 Active and inactive are the calls of the source. No stated cut-off is given here; in the data, active = GI50 up to about 1.1 µM and inactive = higher.
Columns and labels:
Assay in all cases: DTP human tumour cell line panel, 48 h
[1] = test system: ACHN
[2] = test system: SNB-19
[3] = test system: DMS-114
[4] = test system: HL-60
[5] = test system: 786-0
[6] = test system: HOP-62
[7] = test system: HCC 2998
[8] = test system: SR
[9] = test system: OVCAR-4
[10] = test system: TK-10
[11] = test system: HCT-116
[12] = test system: OVCAR-8
[13] = test system: SNB-75
[14] = test system: XF498
[15] = test system: SK-OV-3
[16] = test system: EKVX
[17] = test system: SF-268
[18] = test system: M14
[19] = test system: LOX IMVI
[20] = test system: NCI-H23
[21] = test system: HT-29
[22] = test system: COLO 205
[23] = test system: RPMI-8226
[24] = test system: RXF 393
[25] = test system: SF-539
[26] = test system: HOP-18
[27] = test system: DLD-1
[28] = test system: NCI-H226
[29] = test system: A498
[30] = test system: SK-MEL-28
[31] = test system: HCT-15
[32] = test system: UACC-62
[33] = test system: SF-295
[34] = test system: UO-31
[35] = test system: Malme-3M
[36] = test system: M19-MEL
[37] = test system: MOLT-4
[38] = test system: LXFL 529
[39] = test system: KM-20L2
[40] = test system: NCI-H460
[41] = test system: SNB-78
[42] = test system: UACC-257
[43] = test system: CCRF-CEM
[44] = test system: SN12C
[45] = test system: K562
[46] = test system: SK-MEL-2
[47] = test system: KM12
[48] = test system: NCI-H522
[49] = test system: OVCAR-5
[50] = test system: U-251
[51] = test system: DMS-273
[52] = test system: OVCAR-3
[53] = test system: IGROV-1
[54] = test system: A549
[55] = test system: SK-MEL-5
[56] = test system: SW-620
[57] = test system: CAKI-1
[58] = test system: HOP-92

COc1cc(Cl)cc(O)c(=O)c1OC
GI50 [1]: 37.2 µM (inactive) | GI50 [2]: 56.1 µM (inactive) | GI50 [3]: 24 µM (inactive) | GI50 [4]: 2.15 µM (inactive) | GI50 [5]: 61.1 µM (inactive) | GI50 [6]: 41.1 µM (inactive) | GI50 [7]: 63.4 µM (inactive) | GI50 [8]: 2.2 µM (inactive) | GI50 [9]: 25.7 µM (inactive) | GI50 [10]: 44.1 µM (inactive) | GI50 [11]: 35.8 µM (inactive) | GI50 [12]: 36.9 µM (inactive) | GI50 [13]: 59.2 µM (inactive) | GI50 [14]: > 59.8 µM (inactive) | GI50 [15]: > 62.5 µM (inactive) | GI50 [16]: 25.4 µM (inactive) | GI50 [17]: 25.3 µM (inactive) | GI50 [18]: 41.8 µM (inactive) | GI50 [19]: 26.1 µM (inactive) | GI50 [20]: 35.1 µM (inactive) | GI50 [21]: 64.3 µM (inactive) | GI50 [22]: 28.7 µM (inactive) | GI50 [23]: 15.8 µM (inactive) | GI50 [24]: 26.9 µM (inactive) | GI50 [25]: 44.5 µM (inactive) | GI50 [26]: 71.6 µM (inactive) | GI50 [27]: 37.3 µM (inactive) | GI50 [28]: 25.2 µM (inactive) | GI50 [29]: 57.1 µM (inactive) | GI50 [30]: 92.7 µM (inactive) | GI50 [31]: 25.4 µM | GI50 [32]: 24.4 µM (inactive) | GI50 [33]: 62.4 µM (inactive) | GI50 [34]: 42.4 µM (inactive) | GI50 [35]: 54.7 µM (inactive) | GI50 [36]: 45.8 µM (inactive) | GI50 [37]: 15.8 µM (inactive) | GI50 [38]: 53.3 µM (inactive) | GI50 [39]: 37.9 µM (inactive) | GI50 [40]: 24.3 µM (inactive) | GI50 [41]: 16.9 µM (inactive) | GI50 [42]: 48.8 µM (inactive) | GI50 [43]: 12.7 µM (inactive) | GI50 [44]: 46 µM (inactive) | GI50 [45]: 36.5 µM (inactive) | GI50 [46]: 53.2 µM (inactive) | GI50 [47]: 72.8 µM (inactive) | GI50 [48]: 21.9 µM (inactive) | GI50 [49]: > 92.5 µM (inactive) | GI50 [50]: 40.1 µM (inactive) | GI50 [51]: 32.2 µM (inactive) | GI50 [52]: 20.1 µM (inactive)

Cn1c2ccccc2c(=O)c2c([N+](=O)[O-])ccc(NCCN)c21
GI50 [1]: 6.3 µM (inactive) | GI50 [2]: 14.1 µM (inactive) | GI50 [3]: 11.5 µM (inactive) | GI50 [4]: 4.17 µM (inactive) | GI50 [5]: 6.93 µM (inactive) | GI50 [6]: 14 µM (inactive) | GI50 [7]: 7.98 µM (inactive) | GI50 [8]: 20.1 µM (inactive) | GI50 [9]: 12.2 µM (inactive) | GI50 [10]: 14.7 µM (inactive) | GI50 [11]: 3.73 µM (inactive) | GI50 [12]: 7.19 µM (inactive) | GI50 [13]: 12.1 µM (inactive) | GI50 [14]: 15.1 µM (inactive) | GI50 [15]: 15.7 µM (inactive) | GI50 [16]: 16.5 µM (inactive) | GI50 [17]: 11.3 µM (inactive) | GI50 [18]: 14 µM (inactive) | GI50 [20]: 10.7 µM (inactive) | GI50 [53]: 12.3 µM (inactive) | GI50 [21]: 4.47 µM (inactive) | GI50 [22]: 5.36 µM (inactive) | GI50 [24]: 9.62 µM (inactive) | GI50 [54]: 11.9 µM (inactive) | GI50 [25]: 8.24 µM (inactive) | GI50 [26]: 13.3 µM (inactive) | GI50 [28]: 13.7 µM (inactive) | GI50 [29]: 16.5 µM (inactive) | GI50 [30]: 15.3 µM (inactive) | GI50 [31]: 12.9 µM | GI50 [32]: 14.9 µM (inactive) | GI50 [33]: 12.5 µM (inactive) | GI50 [34]: 5.64 µM (inactive) | GI50 [35]: 14.9 µM (inactive) | GI50 [36]: 13 µM (inactive) | GI50 [37]: 2.06 µM (inactive) | GI50 [38]: 8.63 µM (inactive) | GI50 [39]: 10.1 µM (inactive) | GI50 [40]: 6.92 µM (inactive) | GI50 [41]: 14.5 µM (inactive) | GI50 [42]: 13.6 µM (inactive) | GI50 [55]: 13.2 µM (inactive) | GI50 [44]: 5.14 µM (inactive) | GI50 [46]: 15.3 µM (inactive) | GI50 [47]: 6.43 µM (inactive) | GI50 [48]: 6.92 µM (inactive) | GI50 [56]: 4.55 µM (inactive) | GI50 [49]: 13.8 µM (inactive) | GI50 [57]: 11.9 µM (inactive) | GI50 [50]: 12.8 µM (inactive) | GI50 [58]: 6.76 µM (inactive) | GI50 [51]: 3.86 µM (inactive) | GI50 [52]: 13.8 µM (inactive)

COc1ccccc1NC(=O)C1=C(C)NC(C)=C(C(=O)Nc2ccccc2OC)C1c1ccc(C)cc1
GI50 [1]: 17.3 µM (inactive) | GI50 [2]: > 100 µM (inactive) | GI50 [3]: 51.9 µM (inactive) | GI50 [5]: > 100 µM (inactive) | GI50 [6]: > 100 µM (inactive) | GI50 [7]: 97.5 µM (inactive) | GI50 [9]: 43.4 µM (inactive) | GI50 [10]: 69.5 µM (inactive) | GI50 [11]: 29.9 µM (inactive) | GI50 [12]: 58.9 µM (inactive) | GI50 [13]: 58.5 µM (inactive) | GI50 [14]: 24.3 µM (inactive) | GI50 [15]: > 100 µM (inactive) | GI50 [16]: 47.6 µM (inactive) | GI50 [17]: > 100 µM (inactive) | GI50 [18]: 64.6 µM (inactive) | GI50 [19]: > 100 µM (inactive) | GI50 [20]: 94.8 µM (inactive) | GI50 [53]: 58.7 µM (inactive) | GI50 [21]: > 100 µM (inactive) | GI50 [22]: 12.6 µM (inactive) | GI50 [23]: 37.8 µM (inactive) | GI50 [24]: 35 µM (inactive) | GI50 [25]: > 100 µM (inactive) | GI50 [26]: 76 µM (inactive) | GI50 [28]: 10.5 µM (inactive) | GI50 [29]: 23.3 µM (inactive) | GI50 [30]: > 100 µM (inactive) | GI50 [31]: 33.1 µM | GI50 [32]: 65.3 µM (inactive) | GI50 [33]: 68.4 µM (inactive) | GI50 [34]: 43 µM (inactive) | GI50 [35]: > 100 µM (inactive) | GI50 [36]: 42.5 µM (inactive) | GI50 [38]: 74.1 µM (inactive) | GI50 [39]: > 100 µM (inactive) | GI50 [40]: 31.8 µM (inactive) | GI50 [41]: 56.5 µM (inactive) | GI50 [42]: 51.5 µM (inactive) | GI50 [55]: 16.9 µM (inactive) | GI50 [44]: > 100 µM (inactive) | GI50 [45]: 18.2 µM (inactive) | GI50 [46]: 48.2 µM (inactive) | GI50 [47]: 43 µM (inactive) | GI50 [48]: 60.7 µM (inactive) | GI50 [56]: > 100 µM (inactive) | GI50 [49]: 70.3 µM (inactive) | GI50 [57]: > 100 µM (inactive) | GI50 [50]: > 100 µM (inactive) | GI50 [58]: > 100 µM (inactive) | GI50 [51]: 40 µM (inactive) | GI50 [52]: > 100 µM (inactive)

— ChEMBL document CHEMBL1201862, “PubChem BioAssay data set” (2004)
